Patent publication US11198710B2, “Transgenic plant having herbicide resistance” (priority 2016, dated 2021)

Experiments:
Assay in all cases: Pyroxasulfone metabolizing activity based on fatty acid content in cultured rice cells
Format in all cases: cell-based, maize
[1] = tested on: ZmB6T8R4; details: cultured rice cells with ZmB6T8R4 gene; 10^−7M or 10^−6M pyroxasulfone, liquid culture 14 to 17 days
Method: (§1) The transgenic cultured rice cells thus prepared were used for liquid culture in the presence of pyroxasulfone. Pyroxasulfone was added to the liquid medium as an acetone solution. The final acetone concentration was 0.1%. When liquid culture was carried out, cultured rice cells transformed with KLB-279 (a plasmid comprising Act1p (rice actin 1 promoter)::sGFP::NOSt incorporated into the MCS of PalSelect R-4) were designated as the control samples. Liquid culture was carried out as described below.
(§2) A bag of mixed salts for Murashige-Skoog medium (MS inorganic salts), 1 ml of 10 mg/ml thiamin hydrochloride, 1 ml of 5 mg/ml nicotinic acid, 1 ml of 10 mg/ml pyridoxine hydrochloride, 1 ml of 2 mg/ml glycine, 1 ml of 0.2 mg/ml 2,4-D, 30 g of sucrose, and 1 ml of 50 mg/ml myo-inositol were added into a 1-liter beaker, a pH was adjusted to 5.7, and the volume was precisely adjusted to 1,000 nil with the addition of distilled water, followed by autoclave. After 0.05 ml of pyroxasulfone was added to a 200-ml erlenmeyer flask containing 50 ml of the liquid medium, about 0.5 g of the control cultured rice cells proliferated in a solid medium of the same composition as described above further supplemented with 3 g of gellan gum and 0.25 μM BS or about 0.5 g of the transgenic cultured rice cells prepared as described above were added to the liquid medium, and culture was carried out for 14 to 17 days. After the completion of culture, the liquid medium was removed, and cultured rice cells were recovered.
(§3) One month after the transformation, cultured rice cells comprising the GST genes introduced therein were selected with the use of 0.25 μM bispyribac sodium (BS). Subsequently, the fresh cultured rice cells proliferated in the selection medium were mass-cultured in a conical beaker for approximately 1 month and then used for liquid culture in a pyroxasulfone-containing medium. When conducting liquid culture, the concentration was adjusted to 10^−7M or 10^−6M, so that pyroxasulfone would influence the fatty acid content in the cultured rice cells (Y. Tanetani et al., Pestic. Biochem. Physiol., 95, 47-55, 2009). […]
(§4) Fatty acid was extracted using undecenoic acid (C11:1) as an internal standard. As analytical standards, Supelco FAME mix containing C14:0, C16:0, C16:1, C18:0, C18:1, C18:2, C18:3, C20:0, C22:0, C22:1, and C24:0 and other fatty acid methyl esters (C11:1, C15:0, C20:1, and C26:0) were used, and calibration curves thereof were prepared, followed by quantification. […] Quantitative and qualitative analyses were carried out as methyl esters, although fatty acid methyl esters were converted into fatty acids at the time of quantitative analysis. […]

[2] = tested on: ZmQ9ZP61; details: cultured rice cells with ZmQ9ZP61 gene; 10^−7M or 10^−6M pyroxasulfone, liquid culture 14 to 17 days
Method: as §1, §2, §3, §4

[3] = tested on: ZmY12862; details: cultured rice cells with ZmY12862 gene; 10^−7M or 10^−6M pyroxasulfone, liquid culture 14 to 17 days
Method: as §1, §2, §3, §4

[4] = biological target: T1, ZmM16901 (Zea mays, UniProt P12653); details: cultured rice cells with ZmM16901 gene; 10^−7M or 10^−6M pyroxasulfone, liquid culture 14 to 17 days
T1 construct: expressed in transfected cells; host or cells: cultured rice cells (Agrobacterium EHA105, PalSelect R-4-GST)
Method: as §1, §2, §3, §4

Measured: pyroxasulfone metabolizing activity (C15:0 and VLCFA contents)

T1 sequence (P12653 whole entry): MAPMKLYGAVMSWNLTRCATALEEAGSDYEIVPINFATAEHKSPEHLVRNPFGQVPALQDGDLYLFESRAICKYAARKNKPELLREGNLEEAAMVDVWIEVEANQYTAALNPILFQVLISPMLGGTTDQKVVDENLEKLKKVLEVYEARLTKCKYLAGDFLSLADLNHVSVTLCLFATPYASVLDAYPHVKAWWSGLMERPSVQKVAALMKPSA

Cn1nc(C(F)(F)F)c(CS(=O)(=O)C2=NOC(C)(C)C2)c1OC(F)F [Pyroxasulfone, 3-[5-(difluoromethoxy)-1-methyl-3-(trifluoromethyl)pyrazol-4-ylmethylsulfonyl]-4,5-dihydro-5,5-dimethyl-1,2-oxazole]
no pyroxasulfone metabolizing activity: all assays above
